Laboratory results taken from patent publication US12410133B2, “Crystalline (r)-5-carbamoylpyridin-3-yl-2-methyl-4-(3-(trifluoromethoxy)benzyl)piperazine-1-carboxylate, compositions and methods of use thereof” (Celgene Corporation, priority 2018, dated 2025).
In brackets after ≈: the same amount, converted by molar mass.

How the values were obtained:
Format in all cases: physicochemical
[1] = Solubility of Form B in FaSSIF-v2 and FeSSIF-v2 at 37° C.; conditions: for Final Form: residual solid by XRPD, 2 hr
Experimental: Solubility of Form B was evaluated at 2 hr for Form B in FaSSIF-v2 and FeSSIF-v2 at 37° C. Approximately 10 to 20 mg of Form B sample was added in 0.8 mL of corresponding bio-relevant medium to form a suspension, followed by shaking at 500 rpm at 37° C. After 2 hr, the supernatants were isolated by centrifugation (7200 rpm for 5 min) followed by filtration through […] PTFE membrane and were tested by HPLC concentration and pH. The residual solids were characterized by XRPD. As summarized in Table 17, Form B converted to a new form (Form C) after solubility evaluation, while the solubility in FaSSIF-v2 and FeSSIF-v2 was measured to be 0.12 and 0.080 mg/mL, respectively.

[2] = Visual solubility assessment of Form B at room temperature; conditions: organic solvent or mixture, thermodynamic from solid
Experimental: Approximately 55 to 90 mg of Form B was added into a 4 mL glass vial. Solvent list in Table 18 was added into each of the vial. These samples were stirred for 3 minutes prior to visual solubility assessment.

[3] = Interconversion study: competitive slurry of Form A and B; conditions: competitive slurry, H2O/PhMe, 1-3 weeks
Experimental: An interconversion study of crystal forms was performed. To understand the thermodynamic stability relationship between Form A and B, competitive slurry experiments were performed at RT and 50° C. in water and toluene. Prior to the study, Form A was used to saturate the corresponding solvent before it was filtered to obtain a near-saturated solution. Equal amounts of Form A and B samples were weighed and then mixed with the prepared near-saturated solution to form a new suspension, which was stirred magnetically (˜1000 rpm) at RT and 50° C.

## C[C@@H]1CN(Cc2cccc(OC(F)(F)F)c2)CCN1C(=O)Oc1cncc(C(N)=O)c1 [Form B, (R)-5-carbamoylpyridin-3-yl-2-methyl-4-(3-(trifluoromethoxy)benzyl)piperazine-1-carboxylate]
[1]; FaSSIF-v2, thermodynamic from solid, FaSSIF (pH 6.5), final pH 6.6
  solubility at 2 h: 0.12 mg/mL (≈ 0.274 mM)
[1]; FeSSIF-v2, thermodynamic from solid, FeSSIF (pH 5.8), final pH 5.9
  solubility at 2 h: 0.08 mg/mL (≈ 0.182 mM)
[1]; FaSSIF (pH 6.5)
  Final Form: Form C
[1]; FeSSIF (pH 5.8)
  Final Form: Form C
[2]; 2-Me THF, room temperature
  solubility at 3 min: > 810 mg/mL
[2]; 2-Propanol, room temperature
  solubility at 3 min: > 365 mg/mL
[2]; Acetone, room temperature
  solubility at 3 min: > 430 mg/mL
[2]; Acetonitrile, room temperature
  solubility at 3 min: > 720 mg/mL
[2]; Dichloromethane, room temperature
  solubility at 3 min: > 830 mg/mL
[2]; EtOH, room temperature
  solubility at 3 min: > 800 mg/mL
[2]; Ethyl Acetate, room temperature
  solubility at 3 min: > 800 mg/mL
[2]; H2O/MeCN 1/3 (v/v) Aw~0.9, room temperature
  solubility at 3 min: > 730 mg/mL
[2]; H2O/MeOH 1/3 (v/v) Aw~0.5, room temperature
  solubility at 3 min: > 780 mg/mL
[2]; Isopropyl Acetate, room temperature
  solubility at 3 min: < 810 mg/mL
[2]; Nitromethane, room temperature
  solubility at 3 min: > 560 mg/mL

## C[C@@H]1CN(Cc2cccc(OC(F)(F)F)c2)CCN1C(=O)Oc1cncc(C(N)=O)c1 [Form A + B, (R)-5-carbamoylpyridin-3-yl-2-methyl-4-(3-(trifluoromethoxy)benzyl)piperazine-1-carboxylate]
[3]; 50° C.
  Final Form: Form A
[3]; RT
  Final Form: Form A
